Target: FP receptor (Homo sapiens (Human), UniProt P43088)
Experiment: In vitro test of inhibition of human FP receptor activity (PGF2α-induced calcium flux in FP-expressing CHEM1 cells)
Assay type: cell-based
Conditions: PGF2α 2 nM, some mean values of multiple determinations
In short: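 FP antagonism in FP-expressing CHEM1 cells loaded with Fluo-8. Compound preincubated 10 min at 37° C, then receptor stimulated with 2 nM (final) PGF2α in calcium-free Tyrode with 2 mM CaCl2.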

Sequence of FP receptor (P43088 whole entry): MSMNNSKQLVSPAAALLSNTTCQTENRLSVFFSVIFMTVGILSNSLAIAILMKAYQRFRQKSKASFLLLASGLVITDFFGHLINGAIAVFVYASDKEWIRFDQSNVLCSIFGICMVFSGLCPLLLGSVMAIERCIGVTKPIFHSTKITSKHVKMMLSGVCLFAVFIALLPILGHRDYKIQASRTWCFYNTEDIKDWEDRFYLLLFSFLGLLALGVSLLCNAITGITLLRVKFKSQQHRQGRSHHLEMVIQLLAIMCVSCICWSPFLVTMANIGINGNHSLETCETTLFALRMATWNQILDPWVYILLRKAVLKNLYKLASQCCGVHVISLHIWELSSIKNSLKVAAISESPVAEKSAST

| Structure (SMILES) | IC50 |
| --- | --- |
| Cc1c(NCC2CCCCC2)nc2ccc(Br)cc2c1C(=O)NCC(CCC(=O)O)c1ccccc1Cl (racemic) [Example 99, (+/−)-5-[({6-Bromo-2-[(cyclohexylmethyl)amino]-3-methylquinolin-4-yl}carbonyl)amino]-4-(2-chlorophenyl)pentanoic acid] | 0.5 µM |
| Cc1c(N2CCCC(F)(F)C2)nc2ccc(Br)cc2c1C(=O)NCC(CCC(=O)O)c1c(F)ccc(F)c1Cl (single isomer, unassigned; (+)) [Example 217, (+)-5-({[6-Bromo-2-(3,3-difluoropiperidin-1-yl)-3-methylquinolin-4-yl]carbonyl}amino)-4-(2-chloro-3,6-difluorophenyl)pentanoic acid] | 0.05 µM |
| Cc1c(N2CC=CCC2)nc2ccc(Br)cc2c1C(=O)NCC(CCC(=O)O)c1cc(F)ccc1Cl (racemic) [Example 10, (+/−)-5-({[6-Bromo-2-(3,6-dihydropyridin-1(2H)-yl)-3-methylquinolin-4-yl]carbonyl}amino)-4-(2-chloro-5-fluorophenyl)pentanoic acid] | 0.036 µM |
| Cc1c(N2CCCC(C)(C)C2)nc2ccc(Br)cc2c1C(=O)NCC(CCC(=O)O)c1ccccc1Cl (racemic) [Example 42, (+/−)-5-({[6-Bromo-2-(3,3-dimethylpiperidin-1-yl)-3-methylquinolin-4-yl]carbonyl}amino)-4-(2-chlorophenyl)pentanoic acid] | 0.13 µM |
| CCC1CCCN(c2nc3ccc(Br)cc3c(C(=O)NCC(CCC(=O)O)c3ccccc3Cl)c2C)C1 (single isomer, unassigned; (+)) [Example 58, (+)-5-[({6-Bromo-2-[3-ethylpiperidin-1-yl]-3-methylquinolin-4-yl}carbonyl)amino]-4-(2-chlorophenyl)pentanoic acid] | 0.00052 µM |
| Cc1c(N2CCCC(F)C2)nc2ccc(Br)cc2c1C(=O)NCC(CCC(=O)O)c1c(Cl)ccc(Cl)c1Cl (single isomer, unassigned) [Example 223, 5-[({6-Bromo-2-[3-fluoropiperidin-1-yl]-3-methylquinolin-4-yl}carbonyl)amino]-4-(2,3,6-trichlorophenyl)pentanoic acid] | 0.14 µM |
| Cc1c(N2CC(F)(F)C2)nc2ccc(Br)cc2c1C(=O)NCC(CCC(=O)O)c1ccccc1Cl (racemic) [Example 75, (+/−)-5-({[6-Bromo-2-(3,3-difluoroazetidin-1-yl)-3-methylquinolin-4-yl]carbonyl}amino)-4-(2-chlorophenyl)pentanoic acid] | 0.12 µM |
| Cc1c(N2CCC[C@@H]2C)nc2ccc(Br)cc2c1C(=O)NCC(CCC(=O)O)c1ccccc1Cl (single isomer, unassigned; (-)) [Example 80] | 0.098 µM |
| Cc1c(N2CCOC(C)C2)nc2ccc(Br)cc2c1C(=O)NCC(CCC(=O)O)c1ccccc1Cl (centres unmarked) [Example 89, 5-[({6-Bromo-3-methyl-2-[2-methylmorpholin-4-yl]quinolin-4-yl}carbonyl)amino]-4-(2-chlorophenyl)pentanoic acid] | 0.35 µM |
| Cc1c(N2CCCOCC2)nc2ccc(Br)cc2c1C(=O)NCC(CCC(=O)O)c1ccccc1Cl (racemic) [Example 90, (+/−)-5-({[6-Bromo-3-methyl-2-(1,4-oxazepan-4-yl)quinolin-4-yl]carbonyl}amino)-4-(2-chlorophenyl)pentanoic acid] | 0.059 µM |
| Cc1c(N2CCCCC2)nc2ccc(Br)cc2c1C(=O)NCC(CCC(=O)O)c1c(Cl)ccc(Cl)c1Cl (single isomer, unassigned; (+)) [Example 172, (+)-5-({[6-Bromo-3-methyl-2-(piperidin-1-yl)quinolin-4-yl]carbonyl}amino)-4-(2,3,6-trichlorophenyl)pentanoic acid] | 0.041 µM |
| Cc1c(N2CCCC(O)C2)nc2ccc(Br)cc2c1C(=O)NCC(CCC(=O)O)c1ccccc1Cl (centres unmarked) [Example 55, 5-[({6-Bromo-2-[3-hydroxypiperidin-1-yl]-3-methylquinolin-4-yl}carbonyl)amino]-4-(2-chlorophenyl)pentanoic acid] | 0.11 µM |

Further lines, results first:

| IC50 | Structure (SMILES) |
| --- | --- |
| 0.013 µM | Cc1c(N2CCCCC2)nc2ccc(Br)cc2c1C(=O)NCC(CCC(=O)O)c1c(F)cccc1OC(F)F (single isomer, unassigned; (+)) [Example 184, (+)-5-({[6-Bromo-3-methyl-2-(piperidin-1-yl)quinolin-4-yl]carbonyl}amino)-4-[2-(difluoromethoxy)-6-fluorophenyl]pentanoic acid] |
| 0.00062 µM | CCC1CCCN(c2nc3ccc(Br)cc3c(C(=O)NCC(CCC(=O)O)c3ccccc3C(F)(F)F)c2C)C1 (single isomer, unassigned; (+)) [Example 193, (+)-5-[({6-Bromo-2-[3-ethylpiperidin-1-yl]-3-methylquinolin-4-yl}carbonyl)amino]-4-[2-(trifluoromethyl)phenyl]pentanoic acid] |
| 0.0084 µM | Cc1c(N2CCCCC2)nc2ccc(Br)cc2c1C(=O)NCC(CCC(=O)O)c1cc(F)ccc1F (single isomer, unassigned; (-)) [Example 256, (−)-5-({[6-Bromo-3-methyl-2-(piperidin-1-yl)quinolin-4-yl]carbonyl}amino)-4-(2,5-difluorophenyl)pentanoic acid] |
| 0.011 µM | Cc1ccccc1C(CCC(=O)O)CNC(=O)c1c(C)c(N2CCCCCC2)nc2ccc(Br)cc12 (racemic) [Example 243, (+/−)-5-({[2-(Azepan-1-yl)-6-bromo-3-methylquinolin-4-yl]carbonyl}amino)-4-(2-methylphenyl)pentanoic acid] |
| 0.018 µM | Cc1c(N2CCCC2)nc2ccc(Br)cc2c1C(=O)NCC(CCC(=O)O)c1cc(F)ccc1Cl (racemic) [Example 13, (+/−)-5-({[6-Bromo-3-methyl-2-(pyrrolidin-1-yl)quinolin-4-yl]carbonyl}amino)-4-(2-chloro-5-fluorophenyl)pentanoic acid] |
| 0.0087 µM | Cc1c(N2CC=CCC2)nc2ccc(Br)cc2c1C(=O)NCC(CCC(=O)O)c1ccccc1Cl (single isomer, unassigned) [Example 30, 5-({[6-Bromo-2-(3,6-dihydropyridin-1(2H)-yl)-3-methylquinolin-4-yl]carbonyl}amino)-4-(2-chlorophenyl)pentanoic acid] |
| 0.013 µM | Cc1c(N2CCCC(F)C2)nc2ccc(Br)cc2c1C(=O)NCC(CCC(=O)O)c1ccccc1C(F)(F)F (centres unmarked) [Example 123, 5-[({6-Bromo-2-[3-fluoropiperidin-1-yl]-3-methylquinolin-4-yl}carbonyl)amino]-4-[2-(trifluoromethyl)phenyl]pentanoic acid] |
| 0.014 µM | Cc1c(N2CCCC(F)C2)nc2ccc(Br)cc2c1C(=O)NCC(CCC(=O)O)c1c(Cl)ccc(Cl)c1Cl (centres unmarked) [Example 180, 5-[({6-Bromo-2-[3-fluoropiperidin-1-yl]-3-methylquinolin-4-yl}carbonyl)amino]-4-(2,3,6-trichlorophenyl)pentanoic acid] |
| 0.007 µM | Cc1c(N2CCCC(C)C2)nc2ccc(Br)cc2c1C(=O)NCC(CCC(=O)O)c1ccccc1OC(F)(F)F (single isomer, unassigned; (-)) [Example 209, (−)-5-[({6-Bromo-3-methyl-2-[3-methylpiperidin-1-yl]quinolin-4-yl}carbonyl)amino]-4-[2-(trifluoromethoxy)phenyl]pentanoic acid] |
| 0.02 µM | Cc1c(N2CCCC(F)(F)C2)nc2ccc(Br)cc2c1C(=O)NCC(CCC(=O)O)c1c(F)cccc1F (racemic) [Example 250, (+/−)-5-({[6-Bromo-2-(3,3-difluoropiperidin-1-yl)-3-methylquinolin-4-yl]carbonyl}amino)-4-(2,6-difluorophenyl)pentanoic acid] |
| 0.0013 µM | Cc1c(N2CCCC(C)C2)nc2ccc(Br)cc2c1C(=O)NCC(CCC(=O)O)c1ccccc1Cl (single isomer, unassigned; (-)) [Example 46, (−)-5-[({6-Bromo-3-methyl-2-[3-methylpiperidin-1-yl]quinolin-4-yl}carbonyl)amino]-4-(2-chlorophenyl)pentanoic acid] |
| 0.025 µM | Cc1c(N2CCSCC2)nc2ccc(Br)cc2c1C(=O)NCC(CCC(=O)O)c1cc(F)ccc1Cl (racemic) [Example 11, (+/−)-5-({[6-Bromo-3-methyl-2-(thiomorpholin-4-yl)quinolin-4-yl]carbonyl}amino)-4-(2-chloro-5-fluorophenyl)pentanoic acid] |
| 0.0078 µM | Cc1c(N2CCCC2C)nc2ccc(Br)cc2c1C(=O)NCC(CCC(=O)O)c1ccccc1Cl (centres unmarked) [Example 79, 5-[({6-Bromo-3-methyl-2-[2-methylpyrrolidin-1-yl]quinolin-4-yl}carbonyl)amino]-4-(2-chlorophenyl)pentanoic acid] |
| 0.0084 µM | Cc1c(N2CCCC(F)C2)nc2ccc(Br)cc2c1C(=O)NCC(CCC(=O)O)c1c(Cl)ccc(Cl)c1Cl (single isomer, unassigned) [Example 221, 5-[({6-Bromo-2-[3-fluoropiperidin-1-yl]-3-methylquinolin-4-yl}carbonyl)amino]-4-(2,3,6-trichlorophenyl)pentanoic acid] |
| 0.011 µM | CCC1CCCN(c2nc3ccc(Br)cc3c(C(=O)NCC(CCC(=O)O)c3ccccc3C(F)(F)F)c2C)C1 (single isomer, unassigned; (-)) [Example 194, (−)-5-[({6-Bromo-2-[3-ethylpiperidin-1-yl]-3-methylquinolin-4-yl}carbonyl)amino]-4-[2-(trifluoromethyl)phenyl]pentanoic acid] |
| 0.011 µM | Cc1c(N2CCCC(F)C2)nc2ccc(Br)cc2c1C(=O)NCC(CCC(=O)O)c1ccccc1OC(F)(F)F (single isomer, unassigned; (+)) [Example 203, (+)-5-[({6-Bromo-2-[3-fluoropiperidin-1-yl]-3-methylquinolin-4-yl}carbonyl)amino]-4-[2-(trifluoromethoxy)phenyl]pentanoic acid] |
| 0.0022 µM | Cc1c(N2CCCCC2)nc2ccc(Br)cc2c1C(=O)NCC(CCC(=O)O)c1c(Cl)ccc(F)c1F (racemic) [Example 144, (+/−)-5-({[6-Bromo-3-methyl-2-(piperidin-1-yl)quinolin-4-yl]carbonyl}amino)-4-(6-chloro-2,3-difluorophenyl)pentanoic acid] |
